In ChEMBL document CHEMBL1201862, “PubChem BioAssay data set” (2004):
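Following 48 hours of exposure in 96-well plates, responses at five concentrations were used to interpolate endpoints linearly. GI50 = concentration required for 50% inhibition of growth.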 The source made the active and inactive calls. No stated cut-off is given here; in the data, active = GI50 up to about 1.1 µM and inactive = higher.

Legend:
Assay in all cases: inhibition of tumour cell growth, NCI panel, 48 h
Malme-3M = system: Malme-3M
MCF7 = system: MCF7
MDA-N = system: MDA-N
DU-145 = system: DU-145
HOP-62 = system: HOP-62
NCI-H23 = system: NCI-H23
HOP-92 = system: HOP-92
SF-539 = system: SF-539
RXF 393 = system: RXF 393
SK-MEL-5 = system: SK-MEL-5
NCI/ADR-RES = system: NCI/ADR-RES
HCT-116 = system: HCT-116
MDA-MB-231 = system: MDA-MB-231
EKVX = system: EKVX
OVCAR-3 = system: OVCAR-3
UACC-62 = system: UACC-62
K562 = system: K562
HL-60 = system: HL-60
KM12 = system: KM12
COLO 205 = system: COLO 205

Measured: GI50

CNC(=O)OCC1=C(COC(=O)NC)C(C)N(c2ccccc2)C1 (stereo not given)
inactive: Malme-3M 33.9 µM | MCF7 20.8 µM | MDA-N 33.8 µM | DU-145 54.5 µM | HOP-62 53.6 µM | NCI-H23 38.1 µM | HOP-92 28.8 µM | SF-539 23.3 µM | RXF 393 28.4 µM | SK-MEL-5 17.1 µM | NCI/ADR-RES 46.5 µM | HCT-116 39.9 µM | MDA-MB-231 41.2 µM | EKVX 46.1 µM | OVCAR-3 30.4 µM | UACC-62 26.2 µM | K562 26.7 µM | HL-60 21.7 µM | KM12 30.5 µM | COLO 205 21.2 µM

O=C(NC(c1ccccc1)C(O)C(=O)OCc1ccc2c(c1)C(=O)c1ccccc1C2=O)c1ccccc1 (stereo not given)
inactive: Malme-3M 11.4 µM | MCF7 17.7 µM | MDA-N 30.5 µM | DU-145 54.7 µM | HOP-62 3.62 µM | NCI-H23 12 µM | HOP-92 3.15 µM | SF-539 6.31 µM | RXF 393 3.13 µM | SK-MEL-5 13.6 µM | NCI/ADR-RES 4.35 µM | HCT-116 3.94 µM | MDA-MB-231 15 µM | EKVX 24.7 µM | OVCAR-3 12.6 µM | UACC-62 14.7 µM | K562 > 90.6 µM | HL-60 > 83.6 µM | KM12 57.4 µM | COLO 205 48.4 µM

COc1ccc(-c2c(C#N)c(N)nc(S)c2C#N)cc1
inactive: Malme-3M 29.9 µM | MCF7 39.2 µM | MDA-N 11.5 µM | DU-145 34.8 µM | HOP-62 55.1 µM | NCI-H23 38.3 µM | HOP-92 40.6 µM | SF-539 38.9 µM | RXF 393 33.2 µM | SK-MEL-5 26.2 µM | NCI/ADR-RES 50 µM | HCT-116 29.4 µM | MDA-MB-231 26.1 µM | EKVX 36.1 µM | OVCAR-3 64.7 µM | UACC-62 41.5 µM | K562 26.5 µM | HL-60 23.1 µM | KM12 41.8 µM | COLO 205 30.1 µM

Cc1c(C)c(S(=O)(=O)N(CCCCCCN)OCCCN)c(C)c2c1OC(C)(C)CC2
inactive: Malme-3M 2.15 µM | MCF7 9.59 µM | MDA-N 2.81 µM | DU-145 26.4 µM | HOP-62 4.36 µM | NCI-H23 8.83 µM | HOP-92 4.16 µM | SF-539 > 24.1 µM | RXF 393 4.13 µM | SK-MEL-5 10.6 µM | NCI/ADR-RES 15.5 µM | HCT-116 1.97 µM | MDA-MB-231 3.56 µM | EKVX 6.65 µM | OVCAR-3 2.44 µM | UACC-62 11.4 µM | K562 4.53 µM | HL-60 1.22 µM | KM12 1.91 µM | COLO 205 4.29 µM
